Experimental data as given in publication PMC7486940, “Pre-symptomatic Caspase-1 inhibitor delays cognitive decline in a mouse model of Alzheimer disease and aging” (Nature Communications, 2020).
Where “and” joins values, the source holds several entries; their conditions need not be identical. Equal values may be shown once. Read-outs that look alike come from different tables or passages of the source. Marks after values point to notes of the source that are not given here.

Assays:
[1] = VX-765 and VRT-043198 pharmacokinetics (LC-MS/MS) in plasma, whole brain and CSF after a single IP dose of VX-765
Method: Plasma, whole brain and CSF concentrations of VX-765 and its active metabolite, VRT-043198, were determined by LC-MS/MS at Paraza Pharma (Montreal, QC, Canada). Fourteen C57BL/6J female mice received a single IP dose of 50 mg · kg^−1 VX-765 and 2 mice per time point were euthanized at 0.25, 0.5, 1, 3, 6, 8 and 24 h post-injection. Mice were isoflurane anesthetized to collect CSF and perform a cardiac puncture followed by whole body perfusion with PBS. Plasma samples were extracted 1:1 in spiking solution and internal standard solution containing 0.1 μM glyburide in acetonitrile. Brain and CSF samples were extracted 1:1 in spiking solution and internal standard solution containing 0.2 μM labetalol in 50:50 methanol:acetonitrile. Samples were centrifuged at 4000 × g for 10 min at 4 °C, the plasma supernatant diluted 1:1 and the brain and CSF supernatant diluted 1:2 in H2O, and 5 μl was injected into a Quantis LC-MS/MS system for analysis.

[2] = parameters: method as in PMID 30254377; conditions: 50 mg/kg dose of VX-765, carotid infusion, J20 mice; cited from earlier work
[3] = cited from earlier work
Casp1 = system: Casp1; parameters: method as in PMID 30254377; conditions: in vitro Casp1; cited from earlier work
APP23 mice = system: APP23 mice; parameters: method as in PMID 16095884; conditions: 2-month pre-symptomatic treatment, 3-week WO; cited from earlier work
[4] = system: APP/PS1 mouse model of AD; parameters: method as in Woodling et al., Brain 2016; conditions: three month treatment given one month before the appearance of deficits, ref Woodling et al., Brain 2016; cited from earlier work
APP/PS1 = system: APP/PS1; parameters: method as in PMID 29191754; conditions: 1-month pre-treatment, 3-week WO; cited from earlier work
[5] = CSF, 0.50 h after single IP 50 mg/kg VX-765
[6] = CSF, 1 h after single IP 50 mg/kg VX-765
[7] = CSF, 3 h after single IP 50 mg/kg VX-765, some blood contamination during CSF collection
[8] = CSF, 8 h after single IP 50 mg/kg VX-765, some blood contamination during CSF collection
[9] = plasma, 0.25 h after single IP 50 mg/kg VX-765
[10] = plasma, 0.50 h after single IP 50 mg/kg VX-765
[11] = plasma, 1 h after single IP 50 mg/kg VX-765
[12] = plasma, 3 h after single IP 50 mg/kg VX-765
[13] = plasma, 6 h after single IP 50 mg/kg VX-765
[14] = plasma, 8 h after single IP 50 mg/kg VX-765
[15] = plasma, single IP 50 mg/kg VX-765
[16] = whole brain, 0.25 h after single IP 50 mg/kg VX-765
[17] = whole brain, 0.50 h after single IP 50 mg/kg VX-765
[18] = whole brain, 1 h after single IP 50 mg/kg VX-765, NQ = not quantifiable, LLOQ 0.025 μM VX-765, 0.049 μM VRT-043198
[19] = whole brain, single IP 50 mg/kg VX-765

## CC(C)(C)[C@H](NC(=O)c1ccc(N)c(Cl)c1)C(=O)N1CCC[C@H]1C(=O)N[C@H](C=O)CC(=O)O [VRT-043198]
[1]; CSF, 0.25 h after single IP 50 mg/kg VX-765
  CSF concentration, Mouse 2: 3.11 µM
[1]; CSF, 0.25 h after single IP 50 mg/kg VX-765, n = 2
  CSF concentration, Mean: 42.9 µM
[1]; CSF, 0.25 h after single IP 50 mg/kg VX-765, some blood contamination during CSF collection
  CSF concentration, Mouse 1: 82.6* μM
[1]; [5]
  CSF concentration, Mouse 1: 0.44 µM
  CSF concentration, Mouse 2: 7.00 µM
[1]; CSF, 0.50 h after single IP 50 mg/kg VX-765, n = 2
  CSF concentration, Mean: 3.72 µM
[1]; [6]
  CSF concentration, Mouse 1: 0.43 µM
  CSF concentration, Mouse 2: 0.58 µM
[1]; CSF, 1 h after single IP 50 mg/kg VX-765, n = 2
  CSF concentration, Mean: 0.50 µM
[1]; CSF, 3 h after single IP 50 mg/kg VX-765, n = 2
  CSF concentration, Mean: 0.28 µM
[1]; [7]
  CSF concentration, Mouse 1: 0.42* μM
  CSF concentration, Mouse 2: 0.15* μM
[1]; CSF, 6 h after single IP 50 mg/kg VX-765
  CSF concentration, Mean: 0.21 µM
[1]; CSF, 6 h after single IP 50 mg/kg VX-765, some blood contamination during CSF collection
  CSF concentration, Mouse 2: 0.21* μM
[1]; CSF, 8 h after single IP 50 mg/kg VX-765, n = 2
  CSF concentration, Mean: 0.36 µM
[1]; [8]
  CSF concentration, Mouse 1: 0.13* μM
  CSF concentration, Mouse 2: 0.60* μM
[1]; CSF, single IP 50 mg/kg VX-765
  MRTinf in CSF, Mean: 48.6 min
  MRTinf in CSF, Mouse 1: 48.6 min
  Tmax in CSF, Mean: 22.8 min
  Tmax in CSF, Mouse 1: 15 min
  Tmax in CSF, Mouse 2: 30 min
[1]; CSF, within 0.25 h post-injection, single IP 50 mg/kg VX-765
  CSF concentration relative to respective in vitro Casp1 IC50: 4000 fold
[1]; brain, within 0.25 h post-injection, single IP 50 mg/kg VX-765
  brain concentration relative to respective in vitro Casp1 IC50: 170 fold
[1]; [9]
  plasma concentration, Mouse 1: 201800 nM
  plasma concentration, Mouse 2: 180400 nM
[1]; plasma, 0.25 h after single IP 50 mg/kg VX-765, n = 2
  plasma concentration, Mean: 191100 nM
[1]; [10]
  plasma concentration, Mouse 1: 338100 nM
  plasma concentration, Mouse 2: 104100 nM
[1]; plasma, 0.50 h after single IP 50 mg/kg VX-765, n = 2
  plasma concentration, Mean: 221100 nM
[1]; [11]
  plasma concentration, Mouse 1: 24400 nM
  plasma concentration, Mouse 2: 51000 nM
[1]; plasma, 1 h after single IP 50 mg/kg VX-765, n = 2
  plasma concentration, Mean: 37700 nM
[1]; [12]
  plasma concentration, Mouse 1: 1160 nM
  plasma concentration, Mouse 2: 780 nM
[1]; plasma, 3 h after single IP 50 mg/kg VX-765, n = 2
  plasma concentration, Mean: 970 nM
[1]; [13]
  plasma concentration, Mouse 1: 460 nM
  plasma concentration, Mouse 2: 300 nM
[1]; plasma, 6 h after single IP 50 mg/kg VX-765, n = 2
  plasma concentration, Mean: 380 nM
[1]; [14]
  plasma concentration, Mouse 1: 350 nM
  plasma concentration, Mouse 2: 240 nM
[1]; plasma, 8 h after single IP 50 mg/kg VX-765, n = 2
  plasma concentration, Mean: 300 nM
[1]; [15]
  MRTinf in plasma, Mouse 1: 40.2 min
  MRTinf in plasma, Mouse 2: 46.8 min
  Tmax in plasma, Mouse 1: 30 min
  Tmax in plasma, Mouse 2: 15 min
[1]; plasma, within 0.25 h post-injection, single IP 50 mg/kg VX-765
  plasma concentration relative to respective in vitro Casp1 IC50: 20,000 fold
[1]; read-out: Cmax in CSF, Mean, CSF, single IP 50 mg/kg VX-765
  Cmax: 44800 nM
[1]; read-out: Cmax in CSF, Mouse 1, CSF, single IP 50 mg/kg VX-765
  Cmax: 82600 nM
[1]; read-out: Cmax in CSF, Mouse 2, CSF, single IP 50 mg/kg VX-765
  Cmax: 7000 nM
[1]; read-out: Cmax in brain, Mean, whole brain, single IP 50 mg/kg VX-765
  Cmax: 1700 nM
[1]; read-out: Cmax in brain, Mouse 1, whole brain, single IP 50 mg/kg VX-765
  Cmax: 2540 nM
[1]; read-out: Cmax in brain, Mouse 2, whole brain, single IP 50 mg/kg VX-765
  Cmax: 850 nM
[1]; read-out: Cmax in plasma, Mean, plasma, single IP 50 mg/kg VX-765
  Cmax: 259000 nM
[1]; read-out: Cmax in plasma, Mouse 1, plasma, single IP 50 mg/kg VX-765
  Cmax: 338000 nM
[1]; read-out: Cmax in plasma, Mouse 2, plasma, single IP 50 mg/kg VX-765
  Cmax: 180000 nM
[1]; [16]
  brain concentration, Mouse 1: 2540 nM
  brain concentration, Mouse 2: 850 nM
[1]; whole brain, 0.25 h after single IP 50 mg/kg VX-765, n = 2
  brain concentration, Mean: 1700 nM
[1]; [17]
  brain concentration, Mouse 1: 590 nM
  brain concentration, Mouse 2: 650 nM
[1]; whole brain, 0.50 h after single IP 50 mg/kg VX-765, n = 2
  brain concentration, Mean: 620 nM
[1]; whole brain, 1 h after single IP 50 mg/kg VX-765
  brain concentration, Mean: 240 nM
[1]; [18]
  brain concentration, Mouse 1: 210 nM
  brain concentration, Mouse 2: 270 nM
[1]; whole brain, 3 h after single IP 50 mg/kg VX-765
  brain concentration, Mean: 80 nM
[1]; whole brain, 3 h after single IP 50 mg/kg VX-765, NQ = not quantifiable, LLOQ 0.025 μM VX-765, 0.049 μM VRT-043198
  brain concentration, Mouse 1: 80 nM
[1]; [19]
  Half-life (t1/2) in brain, Mouse 1: 59.4 min
  MRTinf in brain, Mean: 52.2 min
  MRTinf in brain, Mouse 1: 58.8 min
  MRTinf in brain, Mouse 2: 45.6 min
  Tmax in brain, Mean: 15 min
  Tmax in brain, Mouse 1: 15 min
  Tmax in brain, Mouse 2: 15 min
[1]; whole brain, single IP 50 mg/kg VX-765, 50 mg/kg
  Half-life (t1/2) in brain, Mean: 60 min and 59.4 min
[2]
  concentration in the J20 brain: 2000 to 5000 nM
[3]
  in vitro half-life (t1/2): ~180 min
Casp1
  IC50: 9.91 nM

## COc1ccc2c3c1O[C@H]1C[C@@H](O)C=C[C@@]31CCN(C)C2 [galantamine]
APP23 mice
  Morris water maze acquisition and spatial memory: improved acquisition and spatial memory in the Morris water maze

## CC(C)Cc1ccc(C(C)C(=O)O)cc1 (stereo not shown) [ibuprofen]
[4]
  cognitive impairment on NOR: prevention of cognitive impairment

## CC12CC3CC(C)(C1)CC(N)(C3)C2 [memantine]
APP23 mice
  Morris water maze acquisition and spatial memory: improved acquisition and spatial memory in the Morris water maze

## CN1CCN(CCOc2cc(OC3CCOCC3)c3c(Nc4c(Cl)ccc5c4OCO5)ncnc3c2)CC1 [saracatinib]
APP/PS1
  NOR performance: continued improved performance in NOR
